Reference: patent publication US20050090522A1 (priority 2001, published 2005)
Read-outs that look alike come from different tables or passages of the source.

Test system: HIV-1
Assay: HIV-1 single-round infectious luciferase reporter virus (pseudotype) assay in HeLa CD4 CCR5 cells
Format: cell-based
Protocol: • Virus production—Human embryonic Kidney cell line, 293, propagated in Dulbecco's Modified Eagle Medium (Life Technologies, Gaithersburg, Md.) containing 10% fetal Bovine serum (FBS, Sigma, St. Louis, Mo.). • Virus infection—Human epithelial cell line, HeLa, expressing the HIV-1 receptors CD4 and CCR^5 was propagated in Dulbecco's Modified Eagle Medium (Life Technologies, Gaithersburg, Md.) containing 10% fetal Bovine serum (FBS, Sigma, St. Louis, Mo.) and supplemented with 0.2 mg/mL Geneticin (Life Technologies, Gaithersburg, Md.) and 0.4 mg/mL Zeocin (Invitrogen, Carlsbad, Calif.). […] Transfections were performed using lipofectAMINE PLUS reagent as described by the manufacturer (Life Technologies, Gaithersburg, Md.). Experiment • 1. Compound was added to HeLa CD4 CCR5 cells plated in 96 well plates at a cell density of 5×10^4 cells per well in 100 μl Dulbecco's Modified Eagle Medium containing 10% fetal Bovine serum at a concentration of […]. • 2. 100 μl of single-round infectious reporter virus in Dulbecco's Modified Eagle Medium was then added to the plated cells and compound at an approximate multiplicity of infection (MOI) of 0.01, resulting in a final volume of 200 μl per well and a final compound concentration of <10 μM. • 3. Samples were harvested 72 h after infection. • 4. Viral infection was monitored by measuring luciferase expression from viral DNA in the infected cells using a luciferase reporter gene assay kit (Roche Molecular Biochemicals, Indianapolis, Ind.). Infected cell supernatants were removed and 50 μl of Dulbecco's Modified Eagle Medium (without phenol red) and 50 μl of luciferase assay reagent reconstituted as described by the manufacturer (Roche Molecular Biochemicals, Indianapolis, Ind.) was added per well. Luciferase activity was then quantified by measuring luminescence using a Wallac microbeta scintillation counter. • 5. […] An EC50 provides a method for comparing the antiviral potency of the compounds of this invention. The effective concentration for fifty percent inhibition (EC50) was calculated with the Microsoft Excel Xlfit curve fitting software. For each compound, curves were generated from percent inhibition calculated at 10 different concentrations by using a four paramenter logistic model (model 205). Table 1 is the key for the data in Tables 2-4. Cytoxicity assays were conducted with the same HeLa using methodology well known in the art.
In Table 5, X2, X4 etc. indicates the point of attachment. […] The data at 10 μM was calculated in the following manner:
For compounds tested at concentrations less than 10 μM, the percent inhibition at 10 μM was determined by extrapolation using the XLfit curve fitting feature of the Microsoft Excel spreadsheet software. Curves were obtained from 10 data points (% inhibition determined at 10 concentrations of compound) by using a four parameter logistic model (XLfit model 205: y=A+((B−A)/(I+((C/x)^D))), where, A=minimum y, B=maximum y, C=logEC50, D=slope factor, and x and y are known data values. Extrapolations were performed with the A and B parameters unlocked. […]

[1] = Human immunodeficiency virus 1, HeLa-CD4/CCR5, read-out: EC50 Group from TABLE 1, HeLa CD4 CCR5 cells, single-round infectious luciferase reporter virus
[2] = Human immunodeficiency virus 1, HeLa-CD4/CCR5, read-out: EC50 Group from Table 1, Table 4, HeLa CD4 CCR5 cells, single-round luciferase reporter virus
[3] = Human immunodeficiency virus 1, HeLa-CD4/CCR5, read-out: EC50 Group from Table 1, Table 2-1, HeLa CD4 CCR5 cells, single-round luciferase reporter virus

## COc1cnc(-n2ccc(CC(C)O)n2)c2[nH]cc(C(=O)C(=O)N3CCN(C(=O)c4ccccc4)CC3)c12 (centres unmarked) [Example 277, 1-benzoyl-4-[(4-methoxy-7-(3-(2-hydroxylpropyl)-pyrazol-1-yl)-6-azaindol-3-yl)-oxoacetyl]piperazine]
[1]
  EC50: < 1000 nM

## COc1cnc(-n2nccc2C)c2[nH]cc(C(=O)C(=O)N3CCN(C(=O)c4ccccc4)CC3)c12 [Example 240, 1-benzoyl-4-[(4-methoxy-7-(5-methyl-pyrazol-1-yl)-6-azaindol-3-yl)-oxoacetyl]piperazine]
[1]
  EC50: < 1000 nM

## Cc1nc(-c2cc(Cl)nc3c(C(=O)C(=O)N4CCN(C(=O)c5ccccc5)C[C@H]4C)c[nH]c23)[nH]c1C [Example 62, 1-benzoyl-3-(R)-methyl-4-[(5-chloro-7-(4,5-dimethyl-imidazol-2-yl)-4-azaindol-3-yl)-oxoacetyl]piperazine]
[2]
  EC50: < 1000 nM

## CCCSc1ncn(-c2ncc(OC)c3c(C(=O)C(=O)N4CCN(C(=O)c5ccccc5)CC4)c[nH]c23)n1 [Example 289, 1-benzoyl-4-[(4-methoxy-7-(3-propylsulfanyl-[1,2,4]triazol-1-yl)-6-azaindol-3-yl)-oxoacetyl]piperazine]
[1]
  EC50: < 1000 nM

## CC1CN(C(=O)c2ccccc2)CCN1C(=O)C(=O)c1c[nH]c2c(-c3ccc4c(c3)OCO4)nccc12 (centres unmarked) [Example 5, 1-benzoyl-3-methyl-4-[(7-(3,4-methylenedioxyphenyl)-6-azaindol-3-yl)-oxoacetyl]piperazine]
[1]
  EC50: < 1000 nM

## COc1cnc(-c2ccc(C=O)o2)c2[nH]cc(C(=O)C(=O)N3CCN(C(=O)c4ccccc4)CC3)c12 [Example 85, 1-(benzoyl)-4-[(4-methoxy-7-(5-carbonyl-furan-2-yl)-6-azaindol-3-yl)-oxoacetyl]piperazine]
[1]
  EC50: < 1000 nM

## COc1cnc(-c2nc(-c3ccoc3)n[nH]2)c2[nH]cc(C(=O)C(=O)N3CCN(C(=O)c4ccccc4)[C@H](C)C3)c12 [Example 340]
[3]
  EC50: < 1000 nM

## O=C(C(=O)N1CCN(C(=O)c2ccccc2)CC1)c1c[nH]c2c(-n3cccn3)ncc(F)c12 [Example 219]
[1]
  EC50: < 1000 nM

## CNc1cnc(-c2ncc(OC)c3c(C(=O)C(=O)N4CCN(C(=O)c5ccccc5)CC4)c[nH]c23)cn1 [Example 115, 1-benzoyl-4-[(4-methoxy-7-(2-methylamino-pyrazin-5-yl)-6-azaindol-3-yl)-oxoacetyl]piperazine]
[1]
  EC50: < 1000 nM

## C[C@H]1CN(C(=O)c2ccccn2)CCN1C(=O)C(=O)c1c[nH]c2c(-c3cncs3)nccc12 [Example 110, (S)-1-picolinoyl-3-methyl-4-[(7-(thiazol-5-yl)-6-azaindol-3-yl)-oxoacetyl]piperazine]
[1]
  EC50: < 1000 nM

## COc1cnc(-c2cnc(O)cn2)c2[nH]cc(C(=O)C(=O)N3CCN(C(=O)c4ccccc4)CC3)c12 [Example 97, 1-(benzoyl)-4-[(4-methoxy-7-(2-hydroxyl-pyrazin-5-yl)-6-azaindol-3-yl)-oxoacetyl]piperazine]
[1]
  EC50: < 1000 nM

## COc1cnc(-c2cnc(O)cn2)c2[nH]cc(C(=O)C(=O)N3CCN(C(=O)c4ccccn4)[C@H](C)C3)c12 [Example 272]
[3]
  EC50: < 1000 nM

## COc1cnc(-c2cccnc2)c2[nH]cc(C(=O)C(=O)N3CCN(C(=O)c4ccccc4)CC3)c12 [Example 25, 1-benzoyl-4-[(4-methoxy-7-(pyridin-3-yl)-6-azaindol-3-yl)-oxoacetyl]piperazine]
[1]
  EC50: < 1000 nM

## O=C(C(=O)N1CCN(C(=O)c2ccccc2)CC1)c1c[nH]c2c(-c3cccnn3)ncc(F)c12 [Example 154]
[1]
  EC50: < 1000 nM

## Cc1csc(-c2ccnc3c(C(=O)C(=O)N4CCN(C(=O)c5ccccc5)C[C@H]4C)c[nH]c23)c1 [Example 86, 1-benzoyl-3-(R)-methyl-4-[(7-(4-methyl-thiophen-2-yl)-4-azaindol-3-yl)-oxoacetyl]piperazine]
[2]
  EC50: < 1000 nM

## C[C@@H]1CN(C(=O)c2ccccc2)CCN1C(=O)C(=O)c1c[nH]c2c(C(=O)Nc3nccs3)ccnc12 [Example 137, (R)-1-benzoyl-3-methyl-4-[(7-(thiazol-2-yl)aminocarbonyl-4-azaindol-3-yl)-oxoacetyl]piperazine]
[2]
  EC50: < 1000 nM

## COc1cnc(-c2nc(-c3cccc(Cl)c3)n[nH]2)c2[nH]cc(C(=O)C(=O)N3CCN(C(=O)c4ccccc4)[C@H](C)C3)c12 [Example 339]
[3]
  EC50: < 1000 nM

## COc1cnc(-n2ccc(-c3ccc(C)nc3)n2)c2[nH]cc(C(=O)C(=O)N3CCN(C(=O)c4ccccc4)CC3)c12 [Example 264, 1-benzoyl-4-[(4-methoxy-7-(3-(2-methylpyridin-5-yl)pyrazol-1-yl)-6-azaindol-3-yl)-oxoacetyl]piperazine]
[1]
  EC50: < 1000 nM

## COc1cnc(-c2cnccn2)c2[nH]cc(C(=O)C(=O)N3CCN(C(=O)c4ncccc4C)CC3)c12 [Example 200]
[1]
  EC50: < 1000 nM

## C[C@@H]1CN(C(=O)c2ccccc2)CCN1C(=O)C(=O)c1c[nH]c2c(-c3ccc(F)cc3)nccc12 [Example 1, 1-benzoyl-3-(R)-methyl-4-[(7-(4-fluorophenyl)-6-azaindol-3-yl)-oxoacetyl]-piperazine]
Human immunodeficiency virus 1, HeLa-CD4/CCR5, read-out: Average % inhibition at 10 μM
  inhibition at 10 µM: 56%
[1]
  EC50: < 1000 nM

## CNc1ncc(-c2ncc(OC)c3c(C(=O)C(=O)N4CCN(C(=O)c5ccccc5)CC4)c[nH]c23)nc1OC [Example 100, 1-benzoyl-4-[(4-methoxy-7-(2-methylamino-3-methoxy-pyrazin-5-yl)-6-azaindol-3-yl)-oxoacetyl]piperazine]
[1]
  EC50: < 1000 nM

## COc1cnc(-n2ccc(CCCC#N)n2)c2[nH]cc(C(=O)C(=O)N3CCN(C(=O)c4ccccc4)CC3)c12 [Example 279, 1-benzoyl-4-[(4-methoxy-7-(3-(3-cyano-propan-1-yl)-pyrazol-1-yl)-6-azaindol-3-yl)-oxoacetyl]piperazine]
[1]
  EC50: < 1000 nM

## CCOc1ncc(-c2ncc(OC)c3c(C(=O)C(=O)N4CCN(C(=O)c5ccccc5)CC4)c[nH]c23)s1 [Example 45, 1-benzoyl-4-[(4-methoxy-7-(2-ethoxy-thiazol-5-yl)-6-azaindol-3-yl)-oxoacetyl]piperazine]
[1]
  EC50: < 1000 nM

## COc1cnc(-n2ccc(-c3cccc(C(=O)O)c3)n2)c2[nH]cc(C(=O)C(=O)N3CCN(C(=O)c4ccccc4)CC3)c12 [Example 294, 1-benzoyl-4-[(4-methoxy-7-(3-(3-hydroxylcarbonylphenyl)-pyrazol-1-yl)-6-azaindol-3-yl)-oxoacetyl]piperazine]
[1]
  EC50: < 1000 nM

## C[C@@H]1CN(C(=O)c2ccccc2)CCN1C(=O)C(=O)c1c[nH]c2c(C(=O)c3cccs3)ccnc12 [Example 168, 1-benzoyl-3-(R)-methyl-4-[(7-(2-thienylcarbonyl)-4-azaindol-3-yl)-oxoacetyl]piperazine]
[2]
  EC50: < 1000 nM

## COc1cnc(-c2cnc(C)cn2)c2[nH]cc(C(=O)C(=O)N3CCN(C(=O)c4ccccn4)CC3)c12 [Example 180, 1-picolinoyl-4-[(4-methoxy-7-(2-methylpyrazin-5-yl)-6-azaindol-3-yl)-oxoacetyl]piperazine]
[1]
  EC50: < 1000 nM

## O=C(C(=O)N1CCN(C(=O)c2ccccc2)CC1)c1c[nH]c2c(-c3ccccn3)nccc12 [Example 19, 1-benzoyl-4-[(7-(pyridin-2-yl)-6-azaindol-3-yl)-oxoacetyl]piperazine]
[1]
  EC50: < 1000 nM

## Nc1cnc(-c2ncc(Cl)c3c(C(=O)C(=O)N4CCN(C(=O)c5ccccc5)CC4)c[nH]c23)cn1 [Example 143]
[1]
  EC50: < 1000 nM
